Measured values taken from patent publication US20120065126A1, “Pharmaceutical Compositions Containing Antifungal Peptides” (BASF SE, priority 2009, published 2012).

What was measured:
M. furfur DSM 6170 = test: Comparison of the efficacy of P18 and AFPP in a shampoo formulation (CFU); type: cell-based, Malassezia furfur; settings: 1:10 with culture medium
Method: In order to study the efficacy of AFPP compared to P18 (SEQ ID NO. 3; sequence: KWKLFKKIPKFLHLAKKF-NH2 (Bachem AG, Switzerland)) in a shampoo formulation, the experiment described in Example 24 was repeated with a shampoo formulation.
Both peptides were present as 2% (w/w) solutions in phosphate buffer (10 mM sodium phosphate, pH 7.5, 100 mM NaCl).
Peptide solution with a final concentration of 0.1% and 0.2% was added to the shampoo formulation. The resulting formulations were stirred over 16 hours in order to obtain homogeneous solutions. The same procedure was repeated with equivalent volumes of the phosphate buffer in order to rule out any influence of the phosphate buffer on the test results.
The growth test was effected as follows: a shake culture containing M472 Pityrosporum medium was inoculated with M. furfur DSM 6170 (DSMZ) and incubated with shaking at 30° C. and 200 rpm overnight.
For each test mixture, a 1.5 ml reaction vessel was filled with Pityrosporum medium and inoculated with the M. furfur overnight culture to give a start OD of 0.1, measured at 600 nm.
The growth of the following test mixtures was monitored: • M. furfur suspension and addition of phosphate buffer in shampoo formulation in an equivalent amount to the volumes which were added with peptide-shampoo solution (in order to rule out any influence of the phosphate buffer on the effect of the active peptides at concentrations in the shampoo formulation of 0.1% or 0.2%) • M. furfur suspension and shampoo formulation with a P18 concentration of 0.1% • M. furfur suspension and shampoo formulation with a P18 concentration of 0.2% • M. furfur suspension and shampoo formulation with an AFPP concentration of 0.1% • M. furfur suspension and shampoo formulation with a final AFPP concentration of 0.2%
The ratio of the shampoo formulation to the M. furfur culture medium was 1:10 in all test mixtures (shampoo formulation: M. furfur culture medium). The reaction volume was 1 ml.
The growth of M. furfur in the test mixtures was observed over a period of 20 minutes. For this purpose, the mixtures were diluted in M472 medium in a ratio of 1:10 after 10 minutes and 20 minutes, and then 10 μl were plated out. The CFU (colony forming units) were determined by counting after incubation at 30° C. for 6 days.
The experiments were effected in double determination and were independently repeated at least once.

M. furfur = test: Kinetics of the effect of P18 in the presence of a shampoo base formulation (CFU); type: cell-based, Malassezia furfur; settings: 10% (v/v) shampoo base formulation 31-3; 0.23-2.3 g/l; 5 min to 24 h
Method: The experiments were conducted as follows: [table] The Texapon NSO and Tego Betain L7 components were mixed and dissolved. NaOH was used to adjust the pH to pH 6-7. The growth test was effected as follows: a shake culture containing […]. furfur and incubated with shaking at 30° C. and 200 rpm overnight. A 96-well microtiter plate was filled with 100 μl per well of […]. furfur suspension from the overnight culture. The M. furfur suspension was adjusted at the start of the experiment to an optical density, measured at 600 nm, of 0.1. 10% (v/v) of shampoo base formulation 31-3 was added to the M. furfur suspension. P18 peptide was dissolved with a concentration of 230 g/l in water. […] The microtiter plate was incubated with shaking at 30°.

T. rubrum (DSM 21146) = test: P18 in pharmaceutical base formulation (CFU); type: cell-based, Trichophyton rubrum; settings: 10 000 ppm in the formulation, mixed 1:9 with suspension
Method: The aim of the experiment was to study the effect of a pharmaceutical base formulation containing the P18 peptide ingredient (P18 sequence H-KWKLFKKIPKFLHLAKKF-NH2 (Bachem AG, Switzerland)) on further fungi and bacteria. For this purpose, the following base formulation was used: […]
1% hydroxycellulose 10% propylene glycol made up with water.
Based on the base formulation, formulations containing 10 000 ppm of P18 peptide were prepared from a 20% concentrate solution.
The effect of the formulations on S. epidermidis (DSM 1798), M. furfur (DSM 6170) and T. rubrum (DSM 21146) was studied.
MEP growth medium according to DSMZ for T. rubrum 30 g of malt extract (Becton, Dickinson and Company, Sparks, USA) 3 g of soya peptone (Becton, Dickinson and Company, Sparks, USA) make up to 1 liter, set pH 5.6.
For T. rubrum, an agar plate on which it had grown was rinsed with 5 ml of medium. 10 μl of the resulting suspension were added to 1 ml of MEP medium and used directly in the experiment.
1.5 ml reaction vessels were each filled with 1 ml of medium and inoculated with the fungal or bacterial suspension from the overnight culture such that the resulting suspensions at the start of the experiment had been adjusted to an optical density, measured at 600 nm, of 0.1. […] After incubation over 24 hours, the colonies on the plates were counted.

H-KWKLFKKIPKFLHLAKKF-NH2 [P18, H-KWKLFKKIPKFLHLAKKF-NH2]
Colony forming units after the incubation time specified (M. furfur DSM 6170; 0.1% in the shampoo formulation, 10 minutes): 80 ± 10 CFU | Colony forming units after the incubation time specified (M. furfur DSM 6170; 0.1% in the shampoo formulation, 20 minutes): 38 ± 21 CFU | Colony forming units after the incubation time specified (M. furfur DSM 6170; 0.2% in the shampoo formulation, 10 minutes): 21 ± 17 CFU | Colony forming units after the incubation time specified (M. furfur DSM 6170; 0.2% in the shampoo formulation, 20 minutes): 3 ± 1 CFU | Effect compared with zinc pyrithione and climbazole at different contact times (M. furfur): better properties than zinc pyrithione or climbazole | Colony forming units after the incubation time specified (T. rubrum (DSM 21146); 5 minutes): 25 ± 8 CFU | Colony forming units after the incubation time specified (T. rubrum (DSM 21146); 60 minutes): 6 ± 1 CFU
